Data: PMC8232621, “Antimicrobial Activity of a Library of Thioxanthones and Their Potential as Efflux Pump Inhibitors” (Pharmaceuticals, 2021)
Several values for one entry are separate records, joined by “and”; a condition that tells them apart may be missing. Identical values can stand only once.

What was measured:
[1] = system: SE03; test: Real-time ethidium bromide accumulation assay (efflux pump inhibition); assay type: cell-based, Salmonella enterica serovar Typhimurium SL1344; details: compounds 50 µM (compound 12 at 17 µM), CCCP 25 µM, minute 60, EB 1 µg/mL
Protocol: (§1) The relative fluorescence index (RFI) was calculated based on the means of relative fluorescence units, and theses RFIs are depicted in Table 4.
(§2) The compounds were evaluated for their ability to inhibit the efflux of EB, an efflux pump substrate, in Salmonella enterica serovar Typhimurium SE03 and S. aureus 272123 strains, through real-time fluorimetry, monitoring the intracellular accumulation of EB, an efflux pump substrate. This was determined by the automated method using a CLARIOstar Plus plate reader (BMG Labtech, Ortenberg, Germany). Reserpine and CCCP were applied at 25 µM as positive controls, and the solvent DMSO was applied at 1% v/v. The bacterial strains were incubated in an appropriate culture media (TSB–S. aureus 272123; LB-B–SE03) at 37 °C until they reached an optical density (OD) of 0.6 at 600 nm. The culture was centrifuged at 13,000× g for 3 min, and the pellet was washed and resuspended with phosphate buffered saline (PBS, pH 7.4). The suspension was centrifuged again in the same conditions and resuspended in PBS.
(§3) Then, 50 µL of this solution were transferred into a 96-well black microtiter plate (Greiner Bio-One Hungary Kft, Mosonmagyaróvár, Fertősor, Hungary), and 50 µL of bacterial suspension (OD600 = 0.6) were added to each well. The plates were placed into the CLARIOstar plate reader, and the fluorescence was monitored at excitation and emission wavelengths of 530 nm and 600 nm, respectively, every minute for one hour on a real-time basis. From the real-time data, the activity of the compounds, namely the relative fluorescence index (RFI) of the last time point (minute 60) of the EB accumulation assay, was calculated according to the following equation:(1) RFI=RFtreated−RFuntreated/RFuntreated where RFtreated is the relative fluorescence (RF) at the last time point of EB accumulation curve in the presence of the compound, and RFuntreated is the RF at the last time point of the EB accumulation curve of the untreated control, having only the solvent (DMSO) control. The accumulation curves were designed using Microsoft Excel®. The samples were tested in triplicate, and the RFI presented comes from the average of these three values. The accumulation graphs present the mean of the RF at the last time point. The standard deviation (SD) was calculated automatically and included in the RF graphs.

[2] = system: E. coli SA/2; test: Synergy with cefotaxime (antibiotic MIC in presence of compound); assay type: cell-based
Source text: (§4) The referred library of thioxanthones was initially tested for their antimicrobial activity against six bacterial strains: the Gram-negative Escherichia coli ATCC 25922, Pseudomonas aeruginosa ATCC 27853 and Salmonella enterica serovar Typhimurium SL1344 (SE03), with the acrA gene deleted, and the Gram-positive Staphylococcus aureus ATCC 29213, Enterococcus faecalis ATCC 29212 and the methicillin and ofloxacin-resistant clinical isolate S. aureus 272123. For the synergy assay, two clinically relevant isolates were used: the extended-spectrum β-lactamase (ESBL)-producing E. coli SA/2 [23] and the vancomycin-resistant E. faecalis (VRE) B3/101 [23]. The antibiotics used were cefotaxime (CTX) and vancomycin (VAN), respectively.
The combined effect of the compounds and clinically relevant antimicrobial drugs was evaluated by determining the antibiotic’s MIC in the presence of each compound. […] The antibiotic tested was serially diluted, whereas the concentration of each compound was kept fixed. […]

[3] = system: S. aureus 272123; test: Real-time ethidium bromide accumulation assay (efflux pump inhibition); assay type: cell-based, Staphylococcus aureus; parameters: key: RFI = (RFtreated − RFuntreated)/RFuntreated at minute 60; details: compounds 50 µM, reserpine 25 µM, minute 60, EB 1 µg/mL
Protocol: as §1, §2, §3

[4] = system: S. aureus ATCC 29213; test: Inhibition of biofilm formation (crystal violet); assay type: cell-based; details: Staphylococcus aureus, ATCC29213, 48 h, S. aureus ATCC 29213, compounds 100 µM (compound 12 at 50 µM), read-out: Biofilm Inhibition (%) ± SD
[5] = system: EZF + CV026; test: Quorum sensing inhibition assay (pigment production), parallel inoculation; assay type: cell-based; details: disk with 8 µL of 10 mM solution, read-out: Quorum Sensing Inhibition (mm) ± SD
Protocol: (§5) Concerning the QS inhibition assay, the sensor strain Chromobacterium violaceum CV026 and the AHL producer strain Sphingomonas paucimobilis Ezf 10-17 (EZF) were inoculated as parallel lines, and the AHL producers Chromobacterium violaceum wild-type 85 (wt85) and Serratia marcescens AS-1 were inoculated as a single line. The interaction between the strains and compounds 2–18 was evaluated as the reduction of pigment production, in millimeters (mm) (Table 5) with promethazine (PMZ) as a positive control.
(§6) The QS inhibitory effect of the compounds was examined on the EZF and the sensor CV026 strains, on the wt85 strain, and on S. marcescens. The method used was the parallel inoculation method, where pair combinations of the used sensor strain CV026 and the N-acyl-homoserine lactone (AHL) producing strain EZF were inoculated directly onto the LB*-A agar surface in parallel, at an approximate distance of 5 mm from each other. S. marcescens AS-1 and wt85 were inoculated as a single line. Filter paper disks (7 mm in diameter) were placed on the center of the inoculated line(s) and impregnated with 8 µL of a solution of 10 mM of the compounds. […] The agar plates were incubated at room temperature (20 °C) for 24−48 h. The QS inhibition was accessed visually, through the inhibition of pigment production. The discolored, but intact, bacterial colonies were measured with a ruler.

[6] = system: S. aureus 272123; test: Antibacterial activity, broth microdilution MIC; assay type: cell-based; details: Staphylococcus aureus, 272123, read-out: Minimum Inhibitory Concentration (MIC)
Source text: as §4
(§7) The minimum inhibitory concentration (MIC) for each compound was determined by broth microdilution method in a 96-well plate according to the Clinical and Laboratory Standard Institute (CLSI) guidelines. The medium used was MHB II. The concentrations tested ranged from 100 µM to 0.195 µM and were prepared from a stock solution of 10 mM in DMSO, for S. aureus 272123 and SE03; for the other strains, the concentrations tested ranged from 64 µg/mL to 4 µg/mL and were prepared from a stock solution of 10 mg/mL in DMSO. DMSO was used in subinhibitory concentrations (1% v/v). The MIC was determined by visual inspection.

[7] = system: S. aureus 272123; test: Inhibition of biofilm formation (crystal violet); assay type: cell-based, Staphylococcus aureus; details: Staphylococcus aureus; S. aureus 272123; compounds 100 µM (compound 12 at 50 µM); 48 h; read-out: Biofilm Inhibition (%) ± SD
Protocol: Efflux mechanisms are one of the factors that can lead to biofilm-mediated resistance, along with slow growth and reduced penetration due to production of extracellular polysaccharides. […] Additionally, they can also modulate QS, through an influence in the transport of QS signal molecules. Thioxanthones 2–18 were tested for their potential for inhibiting biofilm formation by S. aureus ATCC 29213 and the multi-resistant S. aureus 272123. The biofilm inhibition, presented in percentage (%), was calculated based on the mean of absorbance units. Reserpine, which has previously been described as both an efflux pump inhibitor and an inhibitor of biofilm formation in Gram-positive bacteria was used as control in both strains.
The thioxanthone derivatives were tested for their ability to decrease the formation of biofilm. The bacterial strains used were the Gram-positive S. aureus […] and S. aureus 272123. The detection of the biofilm formation was carried out using the dye crystal violet (CV; 0.1% v/v). The initial inoculum was incubated in TSB overnight, and then diluted to an OD600 of 0.1. […] This meant that compound 12 was added at 50 µM, while the rest of the compounds were added at the concentration of 100 µM. The final volume in each well was 200 µL. Reserpine was used as a positive control, as it was the same compound used in the efflux pump inhibition assay and it has shown activity in the inhibition of biofilm formation in S. aureus strains. The plates were incubated at 30 °C for 48 h, with gentle stirring (100 rpm). After this incubation period, the TSB medium was discarded, and the plates were washed with tap water to remove unattached cells. Afterwards, 200 µL of a 0.1% v/v CV solution were added to the wells and incubated for 15 min at room temperature. Then, the CV solution was removed from the wells, and the plates were washed again with tap water, and 200 µL of a 70% ethanol solution was added to the wells. The biofilm formation was determined by measuring the OD600 using a Multiscan EX ELISA plate reader (Thermo Labsystems, Cheshire, WA, USA). The anti-biofilm effect of the compounds was expressed in the percentage (%) of decrease of biofilm formation.

[8] = system: SE03; test: Antibacterial activity, broth microdilution MIC; assay type: cell-based, Salmonella enterica serovar Typhimurium SL1344; details: Salmonella enterica, read-out: Minimum Inhibitory Concentration (MIC)
Source text: as §4, §7

[9] = system: S. marcescens; test: Quorum sensing inhibition assay (pigment production); assay type: cell-based, Serratia marcescens AS-1; details: Serratia marcescens, read-out: Quorum Sensing Inhibition (mm) ± SD
Protocol: as §5, §6

[10] = system: wt85; test: as above; assay type: cell-based, Chromobacterium violaceum wild-type 85; details: Chromobacterium violaceum, read-out: Quorum Sensing Inhibition (mm) ± SD
Protocol: as §5, §6

[11] = Cytotoxicity in NIH/3T3 cell line (MTT assay); assay type: cell-based; details: mouse, NIH/3T3 mouse fibroblast cells, read-out: IC50 (µM) ± SD, cytotoxicity
Protocol: Before each cytotoxicity assay using this cell line, cells were seeded in untreated 96-well flat-bottom microtiter plates, following a 4-hour incubation period in a humidified atmosphere (5% CO2, 95% air) at 37 °C [47]. […] Prior to the assay, the cells were seeded for 4 h using 1 × 10^4 cells/well. […] The plates were incubated for 24 h, after which a solution of MTT in PBS was added to each well and incubated for another 4 h. After this, 100 μL of SDS (10% in a 0.01 M HCl solution) was added to each well and incubated overnight at 37 °C. Doxorubicin was used as a positive control. Cell growth was determined in quadruplicate by measuring OD at λ = 540 nm (reference 630 nm) in a Multiscan EX ELISA reader (Thermo Labsystems, Cheshire, WA, USA). […] (2) 100−ODsample−ODmedium control/ODcell control−ODmedium control×100 […]

[12] = system: E. faecalis B3/101; test: Synergy with vancomycin (antibiotic MIC in presence of compound); assay type: cell-based, Enterococcus faecalis
Source text: as §4
The combined effect of the compounds and clinically relevant antimicrobial drugs was evaluated by determining the antibiotic’s MIC in the presence of each compound. […] The antibiotic tested was serially diluted, whereas the concentration of each compound was kept fixed. In the case of compound 12, the concentration used was 8 µg/mL. For all other compounds, the concentration used was 64 µg/mL. Antibiotic MICs were determined as described above.

| CTX MIC (antibiotic alone) [2] | SMILES | RFI ± SD [1] | RFI ± SD [3] | inhibition at 100 µM [4] [%] | zone of inhibition at 10000 µM [5] [mm] | MIC [6] [µM] | inhibition at 100 µM [7] [%] | MIC [8] [µM] | zone of inhibition at 10000 µM [9] [mm] | zone of inhibition at 10000 µM [10] [mm] | IC50 at 24 h [11] [µM] | VAN MIC (antibiotic alone) [12] |
| --- | --- | --- | --- | --- | --- | --- | --- | --- | --- | --- | --- | --- |
|  | N#CC(C#N)=NNc1cccc(Cl)c1 [CCCP, carbonyl cyanide 3-chlorophenylhydrazone, reference compound] | 0.23 ± 0.04 |  |  |  |  |  |  |  |  |  |  |
| 1124 µM and 512 µg/mL | CO/N=C(\C(=O)N[C@@H]1C(=O)N2C(C(=O)O)=C(COC(C)=O)CS[C@H]12)c1csc(N)n1 [CTX, cefotaxime, reference compound] |  |  |  |  |  |  |  |  |  |  |  |
|  | CCCOc1ccc(OC)c2c(=O)c3ccccc3sc12 [Compound 4] | −0.10 ± 0.05 | 0.11 ± 0.26 | 0.17 ± 0.83 | 0 | > 100 | 47.9 ± 1.08 | > 100 | 0 | 0 |  |  |
|  | CCCOc1ccc(NCCc2nc3ccccc3[nH]2)c2c(=O)c3ccccc3sc12 [Compound 5] | −0.20 ± 0.01 | −0.13 ± 0.04 | 0.37 ± 0.47 | 0 | > 100 | 0 | > 100 | 0 | 0 |  |  |
|  | CCCOc1ccc(NCCc2ccc([N+](=O)[O-])cc2)c2c(=O)c3ccccc3sc12 [Compound 6] | −0.20 ± 0.01 | 0.09 ± 0.11 | 0 | 0 | > 100 | 0 | > 100 | 0 | 0 |  |  |
|  | CCCOc1ccc(N2CCN(C(C)=O)CC2)c2c(=O)c3ccccc3sc12 [Compound 7] | 0.49 ± 0.11 | −0.10 ± 0.02 | 0 | 30 ± 0.5 | > 100 | 47.1 ± 7.54 | > 100 | 0 | 0 |  |  |
|  | COc1cccc2c1C(=O)c1c(O)c3c(c(O)c1C2=O)C[C@@](O)(C(=O)CO)C[C@@H]3O[C@H]1C[C@H](N)[C@H](O)[C@H](C)O1 [Doxorubicin, doxorubicin, reference compound] |  |  |  |  |  |  |  |  |  | 12.1 ± 0.81 |  |
|  | CC(CN1c2ccccc2Sc2ccccc21)N(C)C (stereo not drawn) [PMZ, promethazine, reference compound] |  |  |  | 41 ± 0.5 |  |  |  | 18 ± 0.8 | 40 ± 0.1 |  |  |
|  | COC(=O)[C@H]1[C@H]2C[C@@H]3c4[nH]c5cc(OC)ccc5c4CCN3C[C@H]2C[C@@H](OC(=O)c2cc(OC)c(OC)c(OC)c2)[C@@H]1OC [Reserpine, reserpine, reference compound] |  | 0.50 ± 0.04 | 30.4 |  |  |  |  |  |  |  |  |
|  | CN[C@H](CC(C)C)C(=O)N[C@H]1C(=O)N[C@@H](CC(N)=O)C(=O)N[C@H]2C(=O)N[C@H]3C(=O)N[C@H](C(=O)N[C@H](C(=O)O)c4cc(O)cc(O)c4-c4cc3ccc4O)[C@H](O)c3ccc(c(Cl)c3)Oc3cc2cc(c3O[C@@H]2O[C@H](CO)[C@@H](O)[C@H](O)[C@H]2O[C@H]2C[C@](C)(N)[C@H](O)[C@H](C)O2)Oc2ccc(cc2Cl)[C@H]1O [VAN, vancomycin] |  |  |  |  |  |  |  |  |  |  | 707 µM and 1024 µg/mL |
